Assay in all cases: Minimum inhibitory concentration, standard method of the Japan Society of Chemotherapy
What all share (assay type): cell-based

Assay [1] deals with E. coli NIH JC-2 (IFO 12734). Conditions: Escherichia coli, IFO12734. The method, then: (§1) With respect to certain representative compounds among the compounds [I] of the present invention, their minimum inhibitory concentrations (MIC; μg/ml) were measured in accordance with the standard method established by the Japan Society of Chemotherapy [CHEMOTHERAPY, 29(1), 76-79 (1981)]. The results are summarized in Table 1, in which the compound numbers are as shown in examples.

Another assay has as its system P. aeruginosa (IFO 3445). Conditions: Pseudomonas aeruginosa, IFO3445. The method, then:
as §1

The subject of assay [2] is S. aureus 209 P (IFO 12732). Conditions: Staphylococcus aureus, IFO12732. As to the method: as §1

Structures are written as SMILES. ≈ marks a conversion by molar mass, not a printed value.

One may read the MIC as the least concentration at which growth counts as inhibited. High values mean a less susceptible organism, low ones a more susceptible organism. Take `CN[C@@H]1CN(c2c(F)cc3c(=O)c(C(=O)O)cn(C4COC4)c3c2F)C[C@H]1C` (relative stereo) [Compound 91]: the figures for the MIC (in assay [1]; with P. aeruginosa (IFO 3445); in assay [2]) were 0.2 µg/mL (≈ 0.508 µM), 1.56 µg/mL (≈ 3.97 µM) and 0.78 µg/mL (≈ 1.98 µM), respectively.

`CN(C)C1CCN(c2c(F)cc3c(=O)c(C(=O)O)cn(C4COC4)c3c2F)C1` (stereo not drawn) [Compound 19]: the MIC in assay [1] was determined as 0.2 µg/mL (≈ 0.508 µM); in the assay with P. aeruginosa (IFO 3445), 3.13 µg/mL (≈ 7.96 µM); in assay [2], 1.56 µg/mL (≈ 3.97 µM).

On to `CNC1CCN(c2c(F)cc3c(=O)c(C(=O)O)cn(C4COC4)c3c2F)C1` (stereo not drawn) [Compound 44, 6,8-Difluoro-7-(3-methylaminopyrrolidin-1-yl)-1-(oxetan-3-yl)-1,4-dihydro-4-oxoquinoline-3-carboxylic acid], for which the figures for the MIC (in assay [1]; against P. aeruginosa (IFO 3445); in assay [2]) were 0.39 µg/mL (≈ 1.03 µM), 1.56 µg/mL (≈ 4.11 µM) and 1.56 µg/mL (≈ 4.11 µM), respectively.

With `NCC1CN(c2c(F)cc3c(=O)c(C(=O)O)cn(C4COC4)c3c2F)CCO1` (stereo not drawn) [Compound 22], the MIC in assay [1] was 6.25 µg/mL (≈ 15.8 µM); against P. aeruginosa (IFO 3445), more than 25 µg/mL; in assay [2] it was 0.78 µg/mL (≈ 1.97 µM).

As to `CO[C@H]1CN(c2c(F)cc3c(=O)c(C(=O)O)cn(C4COC4)c3c2F)C[C@H]1N` (relative stereo) [Compound 89], the MIC came out at 0.78 µg/mL (≈ 1.97 µM) in assay [1], 3.13 µg/mL (≈ 7.92 µM) with P. aeruginosa (IFO 3445) and 1.56 µg/mL (≈ 3.95 µM) in assay [2].

Regarding `O=C(O)c1cn(C2COC2)c2c(F)c(N3CCOCC3)c(F)cc2c1=O` [Compound 6], the MIC in assay [1] was 0.78 µg/mL (≈ 2.13 µM); against P. aeruginosa (IFO 3445), 6.25 µg/mL (≈ 17.1 µM); in assay [2], 0.78 µg/mL (≈ 2.13 µM).

In the case of `CN1CCN(c2cc3c(cc2F)c(=O)c(C(=O)O)cn3C2COC2)CC1` [Compound 35, 6-Fluoro-7-(4-methylpiperazin-1-yl)-1-(oxetan-3-yl)-1,4-dihydro-4-oxoquinoline-3-carboxylic acid], the values for the MIC (in assay [1]; against P. aeruginosa (IFO 3445); in assay [2]) were 0.2 µg/mL (≈ 0.553 µM), 3.13 µg/mL (≈ 8.66 µM) and 1.56 µg/mL (≈ 4.32 µM), respectively.

Turning to `O=C(O)c1cn(C2COC2)c2c(F)c(N3CCC(O)CC3)c(F)cc2c1=O` [Compound 15], the MIC came to 0.78 µg/mL (≈ 2.05 µM) in assay [1], 6.25 µg/mL (≈ 16.4 µM) with P. aeruginosa (IFO 3445) and 0.39 µg/mL (≈ 1.03 µM) in assay [2].

`CCNC1CCN(c2c(F)cc3c(=O)c(C(=O)O)cn(C4COC4)c3c2F)C1` (stereo not drawn) [Compound 45]: the MIC worked out at 0.39 µg/mL (≈ 0.991 µM) in assay [1], 3.13 µg/mL (≈ 7.96 µM) against P. aeruginosa (IFO 3445) and 1.56 µg/mL (≈ 3.97 µM) in assay [2].

With `COc1c(N2CCC(N)C2)c(F)cc2c(=O)c(C(=O)O)cn(C3COC3)c12` (stereo not drawn) [Compound 76, 7-(3-Aminopyrrolidin-1-yl)-6-fluoro-8-methoxy-1-(oxetan-3-yl)-1,4-dihydro-4-oxoquinoline-3-carboxylic acid], the MIC in assay [1] stood at 0.39 µg/mL (≈ 1.03 µM); in the assay on P. aeruginosa (IFO 3445) it was 1.56 µg/mL (≈ 4.13 µM); in assay [2], 0.2 µg/mL (≈ 0.53 µM).

Turning to `C[C@H]1CN(c2c(F)c(N)c3c(=O)c(C(=O)O)cn(C4COC4)c3c2F)C[C@H]1N` (relative stereo) [Compound 103], the MIC in assay [1] came out at 0.1 µg/mL (≈ 0.254 µM); in the assay on P. aeruginosa (IFO 3445) it was 0.39 µg/mL (≈ 0.989 µM); in assay [2], 0.2 µg/mL (≈ 0.507 µM).

With `O=C(O)c1cn(C2COC2)c2nc(N3CCSC3)c(F)cc2c1=O` [Compound 73], the MIC stood at 0.78 µg/mL (≈ 2.22 µM) in assay [1], 6.25 µg/mL (≈ 17.8 µM) in the assay with P. aeruginosa (IFO 3445) and 0.78 µg/mL (≈ 2.22 µM) in assay [2].

For the compound `NCC1CCN(c2c(F)cc3c(=O)c(C(=O)O)cn(C4COC4)c3c2F)C1` (stereo not drawn) [Compound 20], the minimal inhibitory concentration (MIC) in assay [1] is 1.56 µg/mL (≈ 4.11 µM); with P. aeruginosa (IFO 3445), 3.13 µg/mL (≈ 8.25 µM); in assay [2], 0.2 µg/mL (≈ 0.527 µM).

With `CNCC1CCN(c2c(F)cc3c(=O)c(C(=O)O)cn(C4COC4)c3c2F)C1` (stereo not drawn) [Compound 46], the results for the MIC (in assay [1]; against P. aeruginosa (IFO 3445); in assay [2]) were 0.78 µg/mL (≈ 1.98 µM), 3.13 µg/mL (≈ 7.96 µM) and 0.1 µg/mL (≈ 0.254 µM), respectively.

`O=C(O)c1cn(C2COC2)c2c(F)c(N3CC(O)C3)c(F)cc2c1=O` [Compound 17]: the figures for the MIC (in assay [1]; against P. aeruginosa (IFO 3445); in assay [2]) were 0.78 µg/mL (≈ 2.21 µM), 6.25 µg/mL (≈ 17.7 µM) and 3.13 µg/mL (≈ 8.88 µM), respectively.

For the compound `CCNCC1CCN(c2c(F)c(N)c3c(=O)c(C(=O)O)cn(C4COC4)c3c2F)C1` (stereo not drawn) [Compound 53], the MIC was found to be 0.2 µg/mL (≈ 0.473 µM) in assay [1], 3.13 µg/mL (≈ 7.41 µM) with P. aeruginosa (IFO 3445) and 0.1 µg/mL (≈ 0.237 µM) in assay [2].

Take `O=C(O)c1cn(C2COC2)c2c(F)c(N3Cc4ccccc4C3)c(F)cc2c1=O` [Compound 9]: the minimal inhibitory concentration (MIC) amounted to 0.39 µg/mL (≈ 0.979 µM) in assay [1], 3.13 µg/mL (≈ 7.86 µM) in the assay with P. aeruginosa (IFO 3445) and 0.2 µg/mL (≈ 0.502 µM) in assay [2].

As to `CN[C@@H]1CN(c2c(F)c(N)c3c(=O)c(C(=O)O)cn(C4COC4)c3c2F)C[C@@H]1C` (relative stereo) [Compound 94], the MIC in assay [1] was determined as 0.2 µg/mL (≈ 0.49 µM); in the assay with P. aeruginosa (IFO 3445) it was 1.56 µg/mL (≈ 3.82 µM); in assay [2], 0.78 µg/mL (≈ 1.91 µM).

As for `Nc1c(F)c(N2CCNCC2)c(F)c2c1c(=O)c(C(=O)O)cn2C1COC1` [Compound 55], the values for the MIC (in assay [1]; against P. aeruginosa (IFO 3445); in assay [2]) were 0.39 µg/mL (≈ 1.03 µM), 0.78 µg/mL (≈ 2.05 µM) and 0.78 µg/mL (≈ 2.05 µM), respectively.

Take `Nc1c(F)c(N2CCOCC2)c(F)c2c1c(=O)c(C(=O)O)cn2C1COC1` [Compound 58]: the MIC in assay [1] was 0.78 µg/mL (≈ 2.05 µM); against P. aeruginosa (IFO 3445) it was 6.25 µg/mL (≈ 16.4 µM); in assay [2], 0.39 µg/mL (≈ 1.02 µM).

Take `CN1CCN(c2c(F)cc3c(=O)c(C(=O)O)cn(C4COC4)c3c2F)CC1` [Compound 11]: the values for the MIC (in assay [1]; with P. aeruginosa (IFO 3445); in assay [2]) were 0.2 µg/mL (≈ 0.527 µM), 1.56 µg/mL (≈ 4.11 µM) and 1.56 µg/mL (≈ 4.11 µM), respectively.

Values taken from patent US5407932A, “Quinolone derivatives and antibacterial agents containing the same” (Wakunaga Seiyaku Kabushiki Kaisha, priority 1989, dated 1995).
